Among the test systems are RXF 393 renal; SN12C renal; UACC-257 melanoma; A549 NSCLC; TK-10 renal; 786-0 renal; UO-31 renal; NCI-H23 lung; HOP-92 NSCLC; NCI-H226 lung.
What all share (experiment): NCI-60 cell line screen, 48 h

SMILES strings stand for the structures.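 Compound exposure: 48 hours, 5 concentrations, 96-well plates. GI50 marks 50% less growth. Definition used: TGI = concentration required for complete inhibition of growth.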 Where a SMILES comes first, the peptide text is derived from it. Bridges are numbered along the chain shown (N, C = ends). A value given as a limit tells only on which side of the number the result lay.

For the molecule `COc1ccc(-c2c(/C=N/OCC(=O)O)c3sc4ccccc4n3c2/C=N/OCC(=O)O)cc1`, the TGI with RXF 393 renal, in the assay on SN12C renal, in the assay with UACC-257 melanoma, with A549 NSCLC, with TK-10 renal and in the assay with 786-0 renal was above 50 µM each time. For the same molecule, the TGI with UO-31 renal, in the assay with NCI-H23 lung and in the assay on HOP-92 NSCLC was above 50 µM in each case.

Consider `CCOC(=O)c1cnc2n(c1=O)[C@H]1CCCC[C@@H]1N2`, for which the TGI in the assay with SN12C renal, with UACC-257 melanoma, in the assay on A549 NSCLC, with NCI-H226 lung, with 786-0 renal and with UO-31 renal was above 100 µM each time. For the same molecule, the TGI in the assay on NCI-H23 lung and in the assay on HOP-92 NSCLC was above 100 µM each time.

With `CCCCn1c(-c2ccccc2)cs/c1=N\NC(=O)Cn1c(C)nc2ccccc21`, the TGI in the assay with RXF 393 renal was 94.1 µM; in the assay with SN12C renal it was above 100 µM; in the assay on UACC-257 melanoma it was above 100 µM; in the assay on A549 NSCLC it was above 100 µM; in the assay with TK-10 renal it was above 100 µM; with NCI-H226 lung it was above 100 µM. The TGI with 786-0 renal, with UO-31 renal and with NCI-H23 lung was above 100 µM throughout.

On to `Cc1cc(NS(=O)(=O)c2ccc(Nc3c4ccccc4nc4c(C(=O)NC(CO)(CO)CO)cccc34)cc2)no1`, for which the TGI was 78.6 µM in the assay on SN12C renal; above 100 µM with UACC-257 melanoma; above 100 µM in the assay with A549 NSCLC; 61.7 µM in the assay on TK-10 renal; above 100 µM in the assay with 786-0 renal; above 100 µM with UO-31 renal. The TGI in the assay with NCI-H23 lung and in the assay with HOP-92 NSCLC was above 100 µM each time.

Regarding `COc1ccc(-c2nc(-c3cnccn3)n(C/C=C/c3ccccc3)n2)cc1`, the TGI with SN12C renal was above 100 µM; with UACC-257 melanoma, above 100 µM; with A549 NSCLC, above 100 µM; in the assay on 786-0 renal, 46.5 µM; with UO-31 renal, above 100 µM; in the assay with NCI-H23 lung, above 100 µM. Besides, the TGI with HOP-92 NSCLC was 37 µM.

In the case of `COc1ccc(Cn2c(=O)c(OS(=O)(=O)C(F)(F)F)c(C)c3cc4ccccc4cc32)cc1`, the TGI in the assay on RXF 393 renal, in the assay on SN12C renal, in the assay on UACC-257 melanoma, in the assay with A549 NSCLC, in the assay on TK-10 renal and in the assay with NCI-H226 lung was above 100 µM in each case. Also, the TGI in the assay on 786-0 renal, in the assay with UO-31 renal and with NCI-H23 lung was above 100 µM in each case.

Take `O=S1(=O)N=C(SCc2c[nH]c3ccccc23)N(c2ccccc2)c2ccncc21`: the TGI in the assay on SN12C renal was above 100 µM; in the assay on UACC-257 melanoma, above 100 µM; with A549 NSCLC it was above 100 µM; in the assay with TK-10 renal, above 100 µM; in the assay with NCI-H226 lung, above 100 µM; with 786-0 renal, 65.5 µM. Also, the TGI in the assay on UO-31 renal was 50 µM; in the assay with NCI-H23 lung, above 100 µM; in the assay on HOP-92 NSCLC it was above 100 µM.

In the case of `Cc1noc(-c2ccc(C(=O)O)[nH]2)c1Br`, the TGI in the assay on RXF 393 renal is above 100 µM; in the assay with UACC-257 melanoma, above 100 µM; in the assay on A549 NSCLC, above 100 µM; in the assay with TK-10 renal it was above 100 µM; in the assay on 786-0 renal, 91.9 µM; in the assay with UO-31 renal, above 100 µM. Also, the TGI in the assay on NCI-H23 lung is above 100 µM; in the assay with HOP-92 NSCLC, 84.3 µM.

Take `CN(C)Cc1cc(/C=C/C(=O)c2ccc(Br)cc2)cc(CN(C)C)c1O`: the TGI in the assay on RXF 393 renal is 74.5 µM; with SN12C renal it was 32.3 µM; in the assay on UACC-257 melanoma, 33.7 µM; in the assay on A549 NSCLC, above 100 µM; in the assay with TK-10 renal it was 25.7 µM; with 786-0 renal it was 29.9 µM. In the assay on UO-31 renal, this molecule returned a TGI of 23.2 µM.

Turning to `CC(=O)N1CCOC12N=NC(C)(C)O2` (stereo not drawn), the TGI in the assay on SN12C renal, in the assay with UACC-257 melanoma, in the assay with A549 NSCLC, in the assay on TK-10 renal, in the assay with 786-0 renal and in the assay with UO-31 renal was above 100 µM each time. Moreover, the TGI in the assay with NCI-H23 lung and in the assay with HOP-92 NSCLC was above 100 µM each time.

For `O=c1[nH]c(=S)[nH]c2c1CCCN2`, the TGI in the assay on RXF 393 renal, in the assay on SN12C renal, with UACC-257 melanoma, in the assay on A549 NSCLC, in the assay with TK-10 renal and in the assay with 786-0 renal was above 100 µM throughout. In addition, the TGI in the assay on UO-31 renal, with NCI-H23 lung and with HOP-92 NSCLC was above 100 µM in each case.

Regarding `COc1cc(/C=C2\N=C(c3ccccc3)N(c3cc4cc(Sc5ccccc5)ccc4[nH]3)C2=O)ccc1O`, the TGI in the assay with RXF 393 renal was 27.4 µM; in the assay on SN12C renal, above 50 µM; in the assay on UACC-257 melanoma, above 50 µM; with A549 NSCLC, above 50 µM; with NCI-H226 lung, above 50 µM; in the assay on 786-0 renal, above 50 µM. Also, the TGI in the assay on UO-31 renal, in the assay with NCI-H23 lung and in the assay on HOP-92 NSCLC was above 50 µM throughout.

`COC(=O)C1CCC(=O)NCCCCC(NC(=O)C(N)CC(=O)O)C(=O)N1` (stereo not drawn) (H-Asp-Lys-Glu-OMe; lactam 2-3; configuration not given here): the TGI with RXF 393 renal, with SN12C renal, in the assay on UACC-257 melanoma, with A549 NSCLC, with TK-10 renal and with NCI-H226 lung was above 100 µM each time. Further, the TGI in the assay with 786-0 renal, with UO-31 renal and with NCI-H23 lung was above 100 µM in each case.

In the case of `COc1cccc(C2C(C#N)=C(N)Oc3cc(OCCCCCC[P+](c4ccccc4)(c4ccccc4)c4ccccc4)ccc32)c1` (stereo not drawn), the GI50 was 1.53 µM in the assay with A549 NSCLC; 1.46 µM in the assay on TK-10 renal; 1.91 µM with UO-31 renal; 0.624 µM with NCI-H23 lung; 0.23 µM in the assay with HOP-92 NSCLC. The TGI in the assay with A549 NSCLC was 4.51 µM; with TK-10 renal, 2.99 µM; in the assay with UO-31 renal, 4.69 µM; with NCI-H23 lung it was 2.83 µM; in the assay on HOP-92 NSCLC it was 0.912 µM.

Turning to `O=C1CC(c2cccc([N+](=O)[O-])c2)C2(C(=O)NC(=S)NC2=O)C(c2cccc([N+](=O)[O-])c2)C1` (stereo not drawn), the TGI was 52.3 µM in the assay with SN12C renal; above 100 µM in the assay on UACC-257 melanoma; above 100 µM in the assay with A549 NSCLC; 47.7 µM with TK-10 renal; 59.9 µM with NCI-H226 lung; above 100 µM in the assay on 786-0 renal. The TGI in the assay with UO-31 renal, with NCI-H23 lung and with HOP-92 NSCLC was above 100 µM in each case.
